Measurements from patent US11591301B2, “Indoleamine-2,3-dioxygenase inhibitor, preparation method therefor and use thereof” (HINOVA PHARMACEUTICALS INC., priority 2018, dated 2023).

How the values were obtained:
human IDO1 protease = human IDO1 protease (Homo sapiens (Human), UniProt P14902); assay: Inhibitory activity against human IDO1 protease (absorbance test method); type: biochemical; conditions: IDO1 (His-tag) enzyme, absorbance at 320 nm
Method: IDO1 (His-tag) enzyme(BPS Bioscience), L-tryptophan (Sigma), methylene blue (Sigma), Catalase originated from the liver of cattle (Sigma), L-ascorbic acid (Sigma), glycerol (Sigma), potassium dihydrogen phosphate solution (Sigma), Tween 20 (Sigma), automatic sampling platformLiquid handler (Bravo & Echo), microplate ReaderSpectraMax M5e (Molecular Devices).
2) Test Method of Compounds: The Compounds are Determined by Absorbance Test Method:
The tested compounds are dissolved in DMSO to prepare a high concentration of storage solution. The stock solution of reference compound was diluted with DMSO to prepare a 100× solution. In the first column of the working plate, 8 μL above tested compounds and 8 μL 100× reference compound were respectively added as the highest concentration, and then the highest concentrations were subjected to three times dilution to obtain 11 concentrations and prepare 100× solution. 0.5 μL solution was transferred from the above plate to the detection plate. To each well was added 0.5 μL 100× compound solution. For HPE and ZPE control wells, 0.5 μL 100% DMSO was added. 25 μL 2×IDO1 (His-tag) enzyme solution (containing L-ascorbic acid, methylene blue, and catalase) was added to each well. 25 μL reaction solution without IDO1 (His-tag) enzyme was added into HPE control well. The test plate was centrifugated at 1000 rpm for 1 minute to mix well. Then, the test plate was incubated at room temperature for 30 minutes. 25 μL above 2× substrate (L-tryptophan) solution was added to each well. The test plate was centrifugated at 1000 rpm for 1 minute to mix well. The detection plate was placed on ELISA (SpectraMax M5e), the temperature was set at 25° C., and the absorbance (OD value) was measured at 320 nm every 10 minutes till 60 minutes.
Calculating the increase ratio of absorbance: the slope of the absorbance increase curve from 10 min to 60 min is derived from SpectralMax M5e. The inhibition coefficient of compound was calculated: the inhibition ratio of compound=(the absorbance increase ratio of ZPE control well−the absorbance increase ratio of compound well)/(the absorbance increase ratio of ZPE control well−the absorbance increase ratio of HPE control well)×100. Results was analyzed by Prism 5.0.

[1] = target: IDO1 protease activity in Hela cells (Homo sapiens (Human), UniProt P14902); assay: Inhibition of IDO protease in HeLa cells (IDO/kynurenine experiment, IFN-γ induced); type: cell-based; conditions: 10 ng/mL IFN-γ, 48 h, OD480 nm, read-out: IC50, inhibitory activity against IDO1 protease activity in Hela cells
Sequence of IDO1 protease activity in Hela cells (P14902 whole entry): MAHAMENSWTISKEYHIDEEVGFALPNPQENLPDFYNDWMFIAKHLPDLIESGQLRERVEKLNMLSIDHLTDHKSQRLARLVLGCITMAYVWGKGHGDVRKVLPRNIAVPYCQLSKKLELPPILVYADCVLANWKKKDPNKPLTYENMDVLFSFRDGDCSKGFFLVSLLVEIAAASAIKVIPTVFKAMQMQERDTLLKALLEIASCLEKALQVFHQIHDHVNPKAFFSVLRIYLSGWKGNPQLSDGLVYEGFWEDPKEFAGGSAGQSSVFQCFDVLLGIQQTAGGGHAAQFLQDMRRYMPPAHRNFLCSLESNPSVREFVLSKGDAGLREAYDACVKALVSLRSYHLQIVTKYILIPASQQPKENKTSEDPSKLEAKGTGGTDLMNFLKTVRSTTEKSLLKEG
Method: 2) Experimental Method for Compound Assay 2.1 Seeding HeLa Cells into 96 Well Plate
The medium was taken out from the flask and the cells were washed with PBS. TrypLE solution was added to the flask to make the cells separate. The cells were further washed once with fresh medium containing 10% FBS, and then re-suspended in the medium until the final concentration was 2.3×10^6/mL. Only cells with activity greater than 90% can be used for detection. HeLa cells were planted into 100 μL suitable growth median 96 well plate at 3000 cells/well. The cells were incubated at 37° C. under 5% CO2 overnight.
The compound was diluted to the concentration of 10 mM with DMSO, that was then continuously diluted 3 times to get 9 concentrations. 5 μL compound was added into 45 μL media as the median dilution (10 times dilution, containing 10% DMSO). 96 μL fresh growth media were added to each well to reach the total volume of 196 μL. 2 μL compound solution was taken from the mid-diluted solution and added to the cells in the wells of the assay plate, and then incubated in a 5% CO2 incubator at 37° C. for 30 minutes. 2 μL human IFN-γ solution was added to reach a total volume of 200 μL, with the final concentration of 10 ng/mL, and the final concentration is 0.1%. The cells were incubated in 5% CO2 incubator at 37° C. for 48 h.
After incubating for another 48 hours in a 5% CO2 incubator at 37° C., 140 μL supernatant was added to each well and transferred to a new 96-well plate. 10 μL of 6.1N CCl3COOH was further added to each well, and incubated at 50° C. for 30 min after sealing. The plate was then centrifuged at 2500 rpm for 10 minutes. 100 μL supernatant in each well was transferred to another 96-well assay plate and mixed with 100 μL of 6% (w/v) p-dimethylaminobenzaldehyde. EnSpire was used to read the plate at OD480 nm.
The average data of HC (high control: 10 ng/mL IFN-γ) and LC (low control: no IFN-γ) were calculated for each screening plate. Percent inhibition of compound well (% inh)=100*(aveHC−cpd well)/(aveHC−ave LC). Finally, GraphPad Prism 6 software was used to calculate the IC50 values of compounds and draw the effect-concentration curve.

Sequence of human IDO1 protease (P14902 whole entry): as above

`CC(C)NS(=O)(=O)CCNc1nonc1C(=NO)Nc1ccc(F)c(Br)c1` [Example 4, N-(3-bromo-4-fluorophenyl)-N′-hydroxyl-4-((2-(isopropylsulfamoyl)ethyl)amino)-1,2,5-oxadiazol-3-formamidine] was tested, and the IC50 (human IDO1 protease) was 185 nM.
Work on `O=S(=O)(CCCNc1nonc1C(=NO)Nc1ccc(F)c(Br)c1)NCCO` [Example 16, N-(3-bromo-4-fluorophenyl)-N′-hydroxyl-4-((3-(N-(2-hydroxylethyl)sulfamoyl)propyl)amino)-1,2,5-oxadiazol-3-formamidine] yielded an IC50 [1] of 32 nM and an IC50 (human IDO1 protease) of 51 nM.
`[2H]C([2H])([2H])N(C([2H])([2H])[2H])S(=O)(=O)CCCNc1nonc1/C(=N/O)Nc1ccc(F)c(Br)c1` [Example 28] gave an IC50 [1] of 16 nM and an IC50 (human IDO1 protease) of 106 nM.
With `O=S(=O)(CCCNc1nonc1C(=NO)Nc1ccc(F)c(Br)c1)NC1CC1` [Example 14, N-(3-bromo-4-fluorophenyl)-N′-hydroxyl-4-((3-(N-cyclopropylsulfamoyl)propyl)amino)-1,2,5-oxadiazol-3-formamidine] the IC50 [1] was 37 nM and the IC50 (human IDO1 protease) was 99 nM.
For `NS(=O)(=O)CCOCCNc1nonc1/C(=N/O)Nc1ccc(F)c(Br)c1` [Example 31, N-(3-bromo-4-fluorophenyl)-N′-hydroxyl-4-(2-(2-aminosulfonylethoxyl)-ethylamine)-1,2,5-diazol-3-formamidine], the IC50 [1] was 68 nM.
“N-(3-bromo-4-fluorophenyl)-N′-hydroxyl-4-((2-(morpholinylsulfamoyl)ethyl)amino)-1,2,5-oxadiazol-3-formamidine [Example 9]” gave an IC50 (human IDO1 protease) of 162 nM.
Compound `O=S(=O)(CCCCNc1nonc1/C(=N/O)Nc1ccc(F)c(Br)c1)N1CCC1` [Example 25, 4-((4-(azetidin-1-ylsulfonyl)butyl)amino)-N-(3-bromo-4-fluorophenyl)-N′-hydroxyl-1,2,5-diazol-3-formamidine] has an IC50 [1] of 93 nM.
For `CN(C)S(=O)(=O)CCNc1nonc1/C(=N/O)Nc1ccc(F)c(Br)c1` [Example 7, N-(3-bromo-4-fluorophenyl)-N′-hydroxyl-4-((2-N,N-dimethylsulfamoylethyl)amino)-1,2,5-oxadiazol-3-formamidine], the IC50 (human IDO1 protease) was 115 nM.
With `CCNS(=O)(=O)CCNc1nonc1C(=NO)Nc1ccc(F)c(Br)c1` [Example 3, N-(3-bromo-4-fluorophenyl)-N′-hydroxyl-4-((2-(N-ethylsulfamoyl)ethyl)amino)-1,2,5-oxadiazol-3-formamidine] the IC50 [1] was 35 nM and the IC50 (human IDO1 protease) was 74 nM.
Work on `O=S(=O)(CCCCNc1nonc1/C(=N/O)Nc1ccc(F)c(Br)c1)N1CC(F)C1` [Example 26, N-(3-bromo-4-fluorophenyl)-4-((4-((3-fluorazetidin-1-yl)sulfonyl)butyl)amino)-N′-hydroxyl-1,2,5-oxadiazol-3-amide] yielded an IC50 [1] of 113 nM.
`CC(C)NS(=O)(=O)CCCNc1nonc1/C(=N/O)Nc1ccc(F)c(Br)c1` [Example 13, N-(3-bromo-4-fluorophenyl)-N′-hydroxyl-4-((3-(N-isopropylsulfamoyl)propyl)amino)-1,2,5-oxadiazol-3-formamidine] gave an IC50 [1] of 30 nM and an IC50 (human IDO1 protease) of 63 nM.
For `[2H]C([2H])([2H])NS(=O)(=O)CCCCNc1nonc1/C(=N/O)Nc1ccc(F)c(Br)c1` [Example 29, N-(3-bromo-4-fluorophenyl)-N′-hydroxyl-4-((4-(N-deuteratedmethylsulfamoyl)butyl)amino)-1,2,5-oxadiazol-3-formamidine], the IC50 [1] was 20 nM.
In the case of `[2H]C([2H])([2H])NS(=O)(=O)CCCSc1nonc1/C(=N/O)Nc1cccc(Br)c1F` [Example 33, N-(3-bromo-2-fluorophenyl)-N′-hydroxyl-4-((3-(N-trideuteratedmethylsulfamoyl)propyl)sulfur)-1,2,5-oxadiazol-3-formamidine], the IC50 [1] is reported as 69 nM.
`[2H]C([2H])([2H])N(C([2H])([2H])[2H])S(=O)(=O)CCCCNc1nonc1/C(=N/O)Nc1ccc(F)c(Br)c1` [Example 30] was tested, and the IC50 [1] was 24 nM.
Compound `O=S(=O)(CCCNc1nonc1C(=NO)Nc1ccc(F)c(Br)c1)NO` [Example 21, N-(3-bromo-4-fluorophenyl)-N′-hydroxyl-4-((3-(N-hydroxylsulfamoyl)propyl)amino)-1,2,5-oxadiazol-3-formamidine] has an IC50 (human IDO1 protease) of 99 nM.
Compound `CNS(=O)(=O)CCNc1nonc1C(=NO)Nc1ccc(F)c(Br)c1` [Example 2, N-(3-bromo-4-fluorophenyl)-N′-hydroxyl-4-((2-(N-methylsulfamoyl)ethyl)amino)-1,2,5-oxadiazol-3-formamidine] has an IC50 [1] of 19 nM and an IC50 (human IDO1 protease) of 54 nM.
Compound `[2H]C([2H])([2H])NS(=O)(=O)CCCSc1nonc1/C(=N/O)Nc1ccc(F)c(Br)c1` [Example 32] has an IC50 [1] of 17 nM.
Compound `CCNS(=O)(=O)CCCNc1nonc1C(=NO)Nc1ccc(F)c(Br)c1` [Example 17, N-(3-bromo-4-fluorophenyl)-N′-hydroxyl-4-((3-(N-ethylsulfamoyl)propyl)amino)-1,2,5-oxadiazol-3-formamidine] has an IC50 [1] of 10 nM.
Compound `CONS(=O)(=O)CCCNc1nonc1C(=NO)Nc1ccc(F)c(Br)c1` [Example 20, N-(3-bromo-4-fluorophenyl)-N′-hydroxyl-4-((3-(N-methoxylsulfamoyl)propyl)amino)-1,2,5-oxadiazol-3-formamidine] has an IC50 (human IDO1 protease) of 99 nM.
Work on `O=S(=O)(CCNc1nonc1/C(=N/O)Nc1ccc(F)c(Br)c1)NCC(F)F` [Example 6] yielded an IC50 (human IDO1 protease) of 87 nM and an IC50 (human IDO1 protease; listed as 11) of 44 nM.
`O=S(=O)(CCNc1nonc1C(=NO)Nc1ccc(F)c(Br)c1)NCCO` [Example 5, N-(3-bromo-4-fluorophenyl)-N′-hydroxyl-4-((2-(N-(2-hydroxylethyl)sulfamoyl)ethyl)amino)-1,2,5-oxadiazol-3-formamidine] gave an IC50 [1] of 15 nM and an IC50 (human IDO1 protease) of 49 nM.
